PubChem BioAssay AID2060893 (Molecular Pharmacology Branch, DTP, NCI, 2025)
pIC50: −log10 of the molar value. “And” between values parts separate entries of the source, which are not always exact repeats. Equal values may be shown once. Blank lines part the entries; values can stand above or below the molecule they belong to.

Test system: K86415-001-R-J1-PDC complex spheroids, viability
Test: Anticancer human tumor K86415-001-R-J1-PDC patient-derived lung adenocarcinoma cell line growth inhibition [RAS]
Settings: for viability, T/C: stronger effect = lower value
Source text: RAS pathway inhibitors in Combinations in Complex Spheroids
A high-throughput screen of multi-cell type tumor spheroids was designed to identify active combinations of RAS pathway inhibitors and targeted small molecules. Complex spheroids include a stromal component modeled by human endothelial cells (HUVEC) and fibroblasts modeled by human mesenchymal stem cells (MSCs). The concentration ranges selected for each drug and investigational agent were based upon clinically achievable concentrations if the clinical Cmax of the agent was known.
Compounds. The drugs and investigational agents: abemaciclib (NSC768073), cobimetinib (NSC768068), divarasib (GDC6063, NSC841802), docetaxel (NSC628503), GDC-1971 (RLY-1971, NSC841576), gemcitabine (NSC613327), inavolisib (NSC800729), ipatasertib (NSC767898), KB-0742 (NSC834161), MRTX-1133 (NSC836407), osimertinib (NSC779217), RMC-4630 (NSC839698), RMC-6236 (NSC851965), RMC-6291 (NSC852671), Ro-3306 (NSC812927), sapanisertib (NSC764658), SN-38 (NSC673596), staurosporine (NSC755774), SY5609 (NSC837396), and tovorafenib (DAY101, NSC766906), were obtained from the National Cancer Institute (NCI) Developmental Therapeutics Program Chemical Repository. The FDA-approved anticancer drug set is available from the NCI Developmental Therapeutics Program. […] The stock solutions were prepared in dimethyl sulfoxide (DMSO, Sigma-Aldrich, St. Louis, MO, cat. D2650) at 800-fold the tested concentration and stored at -70 degrees C prior to their use. All drugs and investigational agents were tested over a range starting from a high concentration at or near the clinical Cmax and decreasing in half-log increments. If the clinical Cmax for an agent had not been determined, the highest concentration tested was 10 microM.
Cell Culture. All cells were maintained in an incubator at 37 degrees C and 5% CO2 with 95% humidity. The PDC lines were cultured according to standard operating procedures established by the NCI PDMR. All PDCs were thawed and cultured in Matrigel-coated flasks prepared with a working solution of 1X Ham's F-12 nutrient mix, without supplementation (Invitrogen, Waltham, MA, cat. 11765054), 100 U/mL penicillin-streptomycin (Invitrogen, cat. 15140122), and 2.5% Matrigel (Corning Inc., Corning, NY, cat. 354248) for the first three passages. The 362531-283-R-J2-PDC and 782815-120-R-J1-PDC lines were cultured in 6C/Colon 1B media, which includes advanced DMEM/F-12 (Thermo Fisher Scientific, cat. 12634028), 10 mM HEPES (Thermo Fisher Scientific, cat. 15630080), 1X GlutaMAX supplement (Thermo Fisher Scientific, cat. 35050061), 0.1 mg/mL primocin (InvivoGen, San Diego, CA, cat. ant-pm-2), 10% defined fetal bovine serum, heat inactivated (HyClone Laboratories Inc., Logan, UT, cat. SH30070.03HI), 50% L-WRN conditioned media (ATCC, cat. CRL-3276), 1.25 mM N-Acetyl-L-cysteine (Sigma-Aldrich, cat. A9165), 10 mM nicotinamide (Sigma-Aldrich, cat. N0636), 1X B-27 supplement (Thermo Fisher Scientific, cat. 17504044), 1X N-2 supplement (Thermo Fisher Scientific, cat. 17502048), 50 ng/mL human EGF (Thermo Fisher Scientific, cat. PHG0311), and 10 microM Y-27632 dihydrochloride (Tocris Bioscience, cat. 1254). The K12877-001-R-J1-PDC line was cultured in 6I media, which includes all 6C/Colon 1B media plus 10 ng/mL human FGF-10 (PeproTech, cat. 100-26), 1 ng/mL human FGF-2 (PeproTech, cat. 100-18B), 1 µM prostaglandin E2 (Tocris Bioscience, cat. 2296), […] hydrocortisone (Sigma-Aldrich, cat. H4001), and […] bovine insulin (Sigma-Aldrich, cat. I6634). The K86415-001-R-J1-PDC line was cultured in 6D media, which includes all 6C/Colon 1B media components minus the L-WRN conditioned media. The 485176-168-R4-J1-PDC was cultured in PANC media, which includes all 6C/Colon 1B media plus 100 ng/mL human FGF-10 (PeproTech, cat. 100-26), 500 nM SB-431542 (Selleckchem, cat. S1067), and 10 nM gastrin (Tocris Bioscience, cat. 3006). […]

[1] = curve of first compound, second compound 0.0316 µM
[2] = curve of first compound, second compound 0.1 µM
[3] = curve of first compound, second compound 0.316 µM
[4] = curve of first compound, second compound 1 µM
[5] = curve of first compound, second compound 3.16 µM
[6] = curve of first compound, second compound 10 µM
[7] = second compound 0.0316 µM, first compound 0.00316 µM
[8] = second compound 0.0316 µM, first compound 0.01 µM
[9] = second compound 0.0316 µM, first compound 0.0316 µM
[10] = second compound 0.0316 µM, first compound 0.1 µM
[11] = second compound 0.0316 µM, first compound 0.316 µM
[12] = second compound 0.0316 µM, first compound 1 µM
[13] = second compound 0.1 µM, first compound 0.00316 µM
[14] = second compound 0.1 µM, first compound 0.01 µM
[15] = second compound 0.1 µM, first compound 0.0316 µM
[16] = second compound 0.1 µM, first compound 0.1 µM
[17] = second compound 0.1 µM, first compound 0.316 µM
[18] = second compound 0.1 µM, first compound 1 µM
[19] = second compound 0.316 µM, first compound 0.00316 µM
[20] = second compound 0.316 µM, first compound 0.01 µM
[21] = second compound 0.316 µM, first compound 0.0316 µM
[22] = second compound 0.316 µM, first compound 0.1 µM
[23] = second compound 0.316 µM, first compound 0.316 µM
[24] = second compound 0.316 µM, first compound 1 µM
[25] = second compound 1 µM, first compound 0.00316 µM
[26] = second compound 1 µM, first compound 0.01 µM
[27] = second compound 1 µM, first compound 0.0316 µM
[28] = second compound 1 µM, first compound 0.1 µM
[29] = second compound 1 µM, first compound 0.316 µM
[30] = second compound 1 µM, first compound 1 µM
[31] = second compound 3.16 µM, first compound 0.00316 µM
[32] = second compound 3.16 µM, first compound 0.01 µM
[33] = second compound 3.16 µM, first compound 0.0316 µM
[34] = second compound 3.16 µM, first compound 0.1 µM
[35] = second compound 3.16 µM, first compound 0.316 µM
[36] = second compound 3.16 µM, first compound 1 µM
[37] = second compound 10 µM, first compound 0.00316 µM
[38] = second compound 10 µM, first compound 0.01 µM
[39] = second compound 10 µM, first compound 0.0316 µM
[40] = second compound 10 µM, first compound 0.1 µM
[41] = second compound 10 µM, first compound 0.316 µM
[42] = second compound 10 µM, first compound 1 µM
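Note: spheroids exposed to agents for seven days before readout.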

Compound: CCC(CC)c1cc(NC2CCC(N)C2)n2nccc2n1 (configuration not stated)
- viability, T/C (compound 0.0316 µM): 106% and 116% (2×) and 92.8%
- viability, T/C (compound 0.1 µM): 115% [middle of 4 runs]
- viability, T/C (compound 0.316 µM): 122% [middle of 4 runs]
- viability, T/C (compound 1 µM): 100% [middle of 4 runs]
- viability, T/C (compound 3.16 µM): 3.47% [middle of 4 runs]
- viability, T/C (compound 10 µM): 3.37% [middle of 4 runs]
- IC50 (curve of compound): 1.82 µM [middle of 4 runs]

Compound: Cc1nc(N2CCC3(CC2)COC(C)C3N)c(CO)nc1Sc1ccnc(N)c1Cl (configuration not stated)
- viability, T/C (compound 0.0316 µM): 76.3% [middle of 4 runs]
- viability, T/C (compound 0.1 µM): 53.6% [middle of 4 runs]
- viability, T/C (compound 0.316 µM): 36.6% [middle of 4 runs]
- viability, T/C (compound 1 µM): 27.2% [middle of 4 runs]
- viability, T/C (compound 3.16 µM): 24.6% [middle of 4 runs]
- viability, T/C (compound 10 µM): 20.1% [middle of 4 runs]
- IC50 (curve of compound): 122 nM [middle of 4 runs]

Compound: C=CC(=O)Nc1cc(Nc2nccc(-c3cn(C)c4ccccc34)n2)c(OC)cc1N(C)CCN(C)C + C#Cc1c(F)ccc2cc(O)cc(-c3ncc4c(N5CC6CCC(C5)N6)nc(OCC56CCCN5CC(F)C6)nc4c3F)c12
- pIC50 [1]: 6.31
- pIC50 [2]: 6.54
- pIC50 [3]: 6.72
- pIC50 [4]: 7.37
- pIC50 [5]: > 8.50
- pIC50 [6]: > 8.50
- viability, T/C [7]: 95.1%
- viability, T/C [8]: 99.4%
- viability, T/C [9]: 88.3%
- viability, T/C [10]: 73.1%
- viability, T/C [11]: 58.4%
- viability, T/C [12]: 38.9%
- viability, T/C [13]: 84.5%
- viability, T/C [14]: 99.3%
- viability, T/C [15]: 88.1%
- viability, T/C [16]: 67.7%
- viability, T/C [17]: 50.8%
- viability, T/C [18]: 31.2%
- viability, T/C [19]: 87.8%
- viability, T/C [20]: 92.3%
- viability, T/C [21]: 72.3%
- viability, T/C [22]: 56.1%
- viability, T/C [23]: 46.1%
- viability, T/C [24]: 21.8%
- viability, T/C [25]: 61.1%
- viability, T/C [26]: 59.2%
- viability, T/C [27]: 52.9%
- viability, T/C [28]: 40.8%
- viability, T/C [29]: 24.2%
- viability, T/C [30]: 14.4%
- viability, T/C [31]: 32.3%
- viability, T/C [32]: 33.8%
- viability, T/C [33]: 27.2%
- viability, T/C [34]: 20.4%
- viability, T/C [35]: 13.6%
- viability, T/C [36]: 9.53%
- viability, T/C [37]: 30.3%
- viability, T/C [38]: 16.9%
- viability, T/C [39]: 13.9%
- viability, T/C [40]: 10.1%
- viability, T/C [41]: 10.4%
- viability, T/C [42]: 7%

More lines, main results first:

- pIC50 (curve of compound): > 7.50
Compound: CC(=O)OC12COC1CC(O)C1(C)C(=O)C(O)C3=C(C)C(OC(=O)C(O)C(NC(=O)OC(C)(C)C)c4ccccc4)CC(O)(C(OC(=O)c4ccccc4)C21)C3(C)C (configuration not stated)
- viability, T/C (compound 0.0316 µM): 32.8% [middle of 4 runs]
- viability, T/C (compound 0.1 µM): 30.1% [middle of 4 runs]
- viability, T/C (compound 0.316 µM): 31% [middle of 4 runs]
- viability, T/C (compound 1 µM): 34.2% [middle of 4 runs]
- viability, T/C (compound 3.16 µM): 36.2% [middle of 4 runs]
- viability, T/C (compound 10 µM): 32.1% [middle of 4 runs]

- pIC50 (curve of compound): > 7.50
Compound: NC1c2ccccc2OC12CCN(c1cnc3c(N4CCCc5ncccc54)n[nH]c3n1)CC2 (configuration not stated)
- viability, T/C (compound 0.0316 µM): 46.3% [middle of 4 runs]
- viability, T/C (compound 0.1 µM): 29.9% [middle of 4 runs]
- viability, T/C (compound 0.316 µM): 22.7% [middle of 4 runs]
- viability, T/C (compound 1 µM): 19.7% and 20.6% and 16.5%
- viability, T/C (compound 3.16 µM): 21% [middle of 4 runs]
- viability, T/C (compound 10 µM): 23.1% [middle of 4 runs]

- pIC50 [1]: 7.19
- pIC50 [2]: 7.25
- pIC50 [3]: 7.42
- pIC50 [4]: 7.90
- pIC50 [5]: > 8.50
- pIC50 [6]: > 8.50
Compound: O=C(c1ccc(F)c(F)c1Nc1ccc(I)cc1F)N1CC(O)([C@@H]2CCCCN2)C1 + C#Cc1c(F)ccc2cc(O)cc(-c3ncc4c(N5CC6CCC(C5)N6)nc(OCC56CCCN5CC(F)C6)nc4c3F)c12
- viability, T/C [7]: 89%
- viability, T/C [8]: 83.5%
- viability, T/C [9]: 67.7%
- viability, T/C [10]: 38%
- viability, T/C [11]: 19.8%
- viability, T/C [12]: 8.49%
- viability, T/C [13]: 88.1%
- viability, T/C [14]: 79.9%
- viability, T/C [15]: 61.3%
- viability, T/C [16]: 37%
- viability, T/C [17]: 22.2%
- viability, T/C [18]: 8.46%
- viability, T/C [19]: 74.5%
- viability, T/C [20]: 74.5%
- viability, T/C [21]: 52.2%
- viability, T/C [22]: 29.2%
- viability, T/C [23]: 17.2%
- viability, T/C [24]: 8.24%
- viability, T/C [25]: 61.2%
- viability, T/C [26]: 54.9%
- viability, T/C [27]: 35.9%
- viability, T/C [28]: 22%
- viability, T/C [29]: 12.4%
- viability, T/C [30]: 5.88%
- viability, T/C [31]: 28.6%
- viability, T/C [32]: 32%
- viability, T/C [33]: 20.6%
- viability, T/C [34]: 13.8%
- viability, T/C [35]: 8.69%
- viability, T/C [36]: 3.9%
- viability, T/C [37]: 14.4%
- viability, T/C [38]: 13.1%
- viability, T/C [39]: 9.68%
- viability, T/C [40]: 7.57%
- viability, T/C [41]: 4.87%
- viability, T/C [42]: 3%
